According to patent publication US11833148B2, “Methods for treating or limiting development of cardiovascular disease-related neurological disorders” (ARIZONA BOARD OF REGENTS ON BEHALF OF THE UNIVERSITY OF …, priority 2018, dated 2023):
“Also recorded” adds a separate entry of the source.

Columns and labels:
Assay type in all cases: in vivo
TAC mice [1] = test: Blood pressure by tail cuff in trans-aortic constriction (TAC) mice; conditions: daily SQ 2 mg/kg/mouse; for diastolic blood pressure / mean arterial pressure (MAP): approximately 5-6 weeks post-surgery, 30 minutes after dosing, compared to saline treated TAC mice
Procedure: FIG. 1 is a graph showing the effects of treatment on systolic blood pressure. At approximately 5-6 weeks post-surgery, systolic blood pressure was measured 30 minutes after dosing by tail cuff.
FIG. 2 is a graph showing the effects of treatment on diastolic blood pressure. At approximately 5-6 weeks post-surgery, diastolic blood pressure was measured 30 minutes after dosing by tail cuff.
FIG. 3 is a graph showing the effects of treatment on mean arterial pressure (MAP). At approximately 5-6 weeks post-surgery, mean arterial pressure was measured 30 minutes after dosing by tail cuff.
(§1) Treatment was initiated one week after TAC surgery (daily SQ injections at a dose of 2 mg/kg/mouse) when aortic constriction was confirmed. The treatment groups (n=12 per groups) included sham surgery controls treated with saline, TAC surgery controls treated with saline, TAC surgery animals treated with A (1-7), TAC surgery animals treated with Compound 7 and TAC surgery animals treated with Compound 10. Blood pressure was measured approximately 5-6 weeks after surgery by tail cuff and unaffected by Compound 7 or Compound 10. […] Novel object recognition (NOR) is a test of non-spatial memory. […] The preference of the animal for a novel object over a familiar object exploits the natural tendency of rodents to explore novel objects, was tested 10 weeks after surgery.

TAC mice [2] = test: Novel object recognition (NOR) test in TAC mice; conditions: daily SQ 2 mg/kg/mouse, 10 weeks post-surgery, compared to saline treated TAC mice
Procedure: FIG. 4 is a graph showing the effects of treatment on novel object recognition (NOR). At 10 weeks post-surgery, the mice underwent NOR test to assess cognitive function.
as §1

[3] = tested on: hippocampal cytokine levels (IL-2, IL-10, IL-4, IL-5, IL-6, IL-12p70, IFNγ, KC/GRO, TNFα, IL-10); test: Hippocampal cytokine levels in TAC mice by multi-plexed immunoassay (Meso Scale Discovery); conditions: daily SQ 2 mg/kg/mouse, compared to saline treated TAC controls, data not shown
Procedure: as §1

TAC mice [4] = test: Observation of adverse events after TAC surgery combined with Mas agonist treatment; conditions: daily SQ 2 mg/kg/mouse
Procedure: as §1

Compound	blood pressure (TAC mice [1]; approximately 5-6 weeks after surgery)	diastolic blood pressure (TAC mice [1])	mean arterial pressure (MAP) (TAC mice [1])	novel object recognition (NOR) memory / cognitive function (TAC mice [2])	hippocampal levels of all cytokines tested (IL-2, IL-10, IL-4, IL-5, IL-6, IL-12p70, IFNγ, KC/GRO, TNFα, IL-10) [3]	observable adverse events (TAC mice [4])
CCCCOC(=O)NS(=O)(=O)c1ccc(OC(F)(F)F)cc1-c1ccc(Cn2ccnc2)cn1 [Compound 7]	unaffected	no significant effect	no significant effect	restored NOR memory to sham levels; also recorded: significantly increased cognition	decreased	no observable adverse events
A (1-7): comparator treatment in TAC mice, printed only as A (1-7) (DRVYIHP; Angiotensin 1-7; UniProt P01019 25-31, looked up) [reference compound]		significantly reduced	significantly reduced			
